In patent US11897862B2 (Gilead Sciences, Inc., priority 2022, dated 2024):

How the values were obtained:
IKZF1 = target: T1, IKZF1 (Homo sapiens, UniProt Q13422+Q96SW2); test: HEK293 HiBiT in vitro degradation of IKZF1; assay type: cell-based; settings: for DC50 / IKZF1 Dmax: HEK293 HiBiT; for DC50: 18-24 hr incubation, normalized to DMSO control, read-out: IKZF1 EC50; for IKZF1 Dmax / Dmax: maximum degradation at the highest concentration tested; for Dmax: HEK293, HEK293 HiBiT
T1 construct: expressed in transfected cells
T1 sequence (Q13422 whole entry): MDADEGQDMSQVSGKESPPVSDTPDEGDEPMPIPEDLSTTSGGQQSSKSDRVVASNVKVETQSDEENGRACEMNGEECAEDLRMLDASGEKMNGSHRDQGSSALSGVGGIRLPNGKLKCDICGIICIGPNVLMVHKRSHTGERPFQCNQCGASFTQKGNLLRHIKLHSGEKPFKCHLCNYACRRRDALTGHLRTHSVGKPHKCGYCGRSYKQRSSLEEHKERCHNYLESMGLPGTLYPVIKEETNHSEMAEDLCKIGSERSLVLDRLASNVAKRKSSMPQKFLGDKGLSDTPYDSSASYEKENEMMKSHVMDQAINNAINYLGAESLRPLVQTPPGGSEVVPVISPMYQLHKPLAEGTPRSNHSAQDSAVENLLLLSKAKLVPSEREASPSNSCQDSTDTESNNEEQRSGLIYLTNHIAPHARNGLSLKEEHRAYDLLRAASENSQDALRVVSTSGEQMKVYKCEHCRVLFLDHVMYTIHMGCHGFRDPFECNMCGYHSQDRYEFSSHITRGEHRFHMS
T1 sequence (Q96SW2 whole entry): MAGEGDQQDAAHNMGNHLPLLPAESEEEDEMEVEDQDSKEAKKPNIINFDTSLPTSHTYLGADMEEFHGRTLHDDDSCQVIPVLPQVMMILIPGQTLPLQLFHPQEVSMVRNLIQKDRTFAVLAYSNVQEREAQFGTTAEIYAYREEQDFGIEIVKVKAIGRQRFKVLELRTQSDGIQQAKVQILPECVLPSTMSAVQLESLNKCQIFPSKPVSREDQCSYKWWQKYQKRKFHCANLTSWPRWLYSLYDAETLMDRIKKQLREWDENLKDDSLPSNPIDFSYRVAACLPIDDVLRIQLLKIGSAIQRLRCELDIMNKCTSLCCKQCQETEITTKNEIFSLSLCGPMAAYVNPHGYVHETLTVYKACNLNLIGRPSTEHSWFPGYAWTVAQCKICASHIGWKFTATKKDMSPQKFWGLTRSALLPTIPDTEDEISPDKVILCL
T1 sequence (Q16531 whole entry partner): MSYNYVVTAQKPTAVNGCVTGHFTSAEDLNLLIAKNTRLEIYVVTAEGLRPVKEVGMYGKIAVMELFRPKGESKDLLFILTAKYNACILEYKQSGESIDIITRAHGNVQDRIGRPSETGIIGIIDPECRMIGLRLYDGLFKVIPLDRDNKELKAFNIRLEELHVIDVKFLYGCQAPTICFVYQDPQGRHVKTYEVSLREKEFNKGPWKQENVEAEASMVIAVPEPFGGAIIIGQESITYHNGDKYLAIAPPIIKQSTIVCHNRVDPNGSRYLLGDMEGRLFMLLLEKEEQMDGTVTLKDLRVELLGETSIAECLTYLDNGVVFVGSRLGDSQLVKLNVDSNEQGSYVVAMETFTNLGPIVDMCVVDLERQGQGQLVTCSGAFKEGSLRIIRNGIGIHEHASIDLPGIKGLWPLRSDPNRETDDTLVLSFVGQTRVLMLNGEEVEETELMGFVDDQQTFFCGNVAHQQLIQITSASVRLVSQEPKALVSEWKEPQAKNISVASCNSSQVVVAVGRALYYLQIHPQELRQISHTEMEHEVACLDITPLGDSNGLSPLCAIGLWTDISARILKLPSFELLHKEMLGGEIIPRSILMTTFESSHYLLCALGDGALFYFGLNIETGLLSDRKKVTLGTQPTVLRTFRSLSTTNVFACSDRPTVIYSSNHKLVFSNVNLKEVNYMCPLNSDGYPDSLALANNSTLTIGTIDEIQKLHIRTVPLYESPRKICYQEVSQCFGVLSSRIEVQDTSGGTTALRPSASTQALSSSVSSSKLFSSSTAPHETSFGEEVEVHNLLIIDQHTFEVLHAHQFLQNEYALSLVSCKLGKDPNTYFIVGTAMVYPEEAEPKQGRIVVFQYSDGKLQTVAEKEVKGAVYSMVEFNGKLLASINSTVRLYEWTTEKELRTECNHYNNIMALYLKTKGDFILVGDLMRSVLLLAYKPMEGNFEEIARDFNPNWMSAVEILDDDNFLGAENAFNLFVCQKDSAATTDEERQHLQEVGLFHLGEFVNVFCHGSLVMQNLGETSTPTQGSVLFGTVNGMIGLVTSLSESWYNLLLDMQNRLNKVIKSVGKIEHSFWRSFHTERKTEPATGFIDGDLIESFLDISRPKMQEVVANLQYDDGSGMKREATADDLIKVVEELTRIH
Description: (§1) In vitro degradation of IKZF1, IKZF2, and SALL4 was measured using HiBiT protein tagging and detection technology (Promega).
(§2) HiBit technology was used to develop the quantitative assays to measure the cellular IKZFs level by tagging an 11 amino acid HiBit peptides […] to the protein of interest. Reporter plasmids were generated by fusing a linker sequence ([…]) followed by the HiBit tag at the C-terminus of IKZF1, IKZF2, and SALL4. The fusion fragments were subsequently cloned into pcDNA5 pcDNA™5/FRT/TO plasmids (Thermo Fisher, cat #V652020) downstream of the tetracycline operator. The resulting plasmids were co-transfected with pOG44 Flp-Recombinase Expression Vector (Thermo Fisher, cat #V600520) into Flp-In™ T-REx HEK293 line (Thermo Fisher, cat #R78077) and a stable cell pool was selected by adding 100 µg/ml of Hygromycin (Thermo Fisher, cat #10687010). The reporter cell enabled Tet-On inducible reporter expression from a single copy of the integrated gene.
(§3) On Day 1, Cells were grown to ˜80% confluency in tissue culture medium (DMEM Glutamax (Gibco10569), 10% Tet free FBS (Takara 631106), and PenStrep Glutamin (Gibco 10378)) in tissue culture flasks. Doxycycline was then added to a final concentration of […] to induce reporter expression at 37° C. overnight.
(§4) On Day 2, 125 nL of serially-diluted solution of testing compounds were dispensed into 384-well white solid assay plates via ECHO acoustic liquid handler. Cells were lifted by 0.25% Trypsin (Gibco 25200) then pelleted by centrifugation (Beckman Avanti J-E) at 500×g for 5 min. Cell pellets were resuspended in TC medium at the concentration of 3e5/mL and 25 μL of cell suspension were added into each well of compound-spotted plates. The plates were returned to a 37° C. incubator overnight (18-24 hr).
(§5) On Day 3, assay plates were removed from the tissue culture incubator and 25 μL of Nano-Glo lytic detection system (Promega, cat #N3030) was added to each well. Plates were incubated at r.t. for 3 min with shaking, and luminescence was read using an Envision reader (Perkin Elmer).
(§6) To assess the IKZF1, IKZF2, and SALL4 degrader potential of exemplified compounds of this disclosure and certain Reference Compounds EC50 and Dmax values were determined for the compounds of Examples 1 to 383 and Reference Compounds A-1, B-1, B-2, B-3, B-4, and C-1 in the HiBiT assays. Asterisks (*) indicate examples for which the data shown represents an average of n≥3.

IKZF2 = IKZF2 (Homo sapiens, UniProt Q96SW2+Q9UKS7); test: HEK293 HiBiT in vitro degradation of IKZF2; assay type: cell-based; parameters: expressed in transfected cells; settings: for DC50 / IKZF2 Dmax: HEK293 HiBiT; for DC50: 18-24 hr incubation, normalized to DMSO control, read-out: IKZF2 EC50; for IKZF2 Dmax / Dmax: maximum degradation at the highest concentration tested; for Dmax: HEK293, HEK293 HiBiT
Sequence of IKZF2 (Q9UKS7 1-500 isoform Q9UKS7-2): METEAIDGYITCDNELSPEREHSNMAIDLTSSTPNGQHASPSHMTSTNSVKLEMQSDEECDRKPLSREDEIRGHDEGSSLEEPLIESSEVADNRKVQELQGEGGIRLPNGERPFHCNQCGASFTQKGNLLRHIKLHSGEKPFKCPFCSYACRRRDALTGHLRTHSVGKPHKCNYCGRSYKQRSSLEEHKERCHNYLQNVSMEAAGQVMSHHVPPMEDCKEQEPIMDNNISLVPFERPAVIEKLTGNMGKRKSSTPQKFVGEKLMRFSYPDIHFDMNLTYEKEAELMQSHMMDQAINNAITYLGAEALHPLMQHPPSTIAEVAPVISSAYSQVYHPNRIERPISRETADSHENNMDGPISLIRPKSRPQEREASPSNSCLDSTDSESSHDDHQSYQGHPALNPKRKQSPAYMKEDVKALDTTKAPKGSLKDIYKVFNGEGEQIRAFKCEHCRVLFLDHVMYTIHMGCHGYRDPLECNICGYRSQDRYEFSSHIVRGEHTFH
Sequence of IKZF2 (Q96SW2 whole entry): as the sequence (Q96SW2 whole entry) above
Sequence of IKZF2 (Q16531 whole entry partner): as the sequence (Q16531 whole entry partner) above
Description: as §1, §2, §3, §4, §5, §6

| Compound | DC50 (IKZF1) [nM] | DC50 (IKZF2) [nM] | IKZF2 Dmax (IKZF2) [%] | Dmax (IKZF2) [%] | IKZF1 Dmax (IKZF1) [%] | Dmax (IKZF1) [%] |
| --- | --- | --- | --- | --- | --- | --- |
| O=C1CCC(N2Cc3c(ccc(C[C@H]4OCCC[C@@H]4NC4CCCOC4)c3F)C2=O)C(=O)N1 (single isomer, unassigned) [Example 262] | > 1000 | 72 | – | 85 | – | – |
| O=C1CCC(N2Cc3c(ccc(C[C@H]4OCCC[C@@H]4NC4CCCOC4)c3F)C2=O)C(=O)N1 (single isomer, unassigned) [Example 263] | > 1000 | 95 | 85 | – | – | – |
| COCC1CCC(N[C@H]2CCCO[C@@H]2Cc2ccc3c(c2F)CN(C2CCC(=O)NC2=O)C3=O)CC1 (single isomer, unassigned) [Example 264] | > 1000 | 6 | – | 96 | – | – |
| O=C1CCC(N2Cc3c(ccc(C[C@H]4OCCC[C@@H]4NC4CCC(C(F)F)CC4)c3F)C2=O)C(=O)N1 (single isomer, unassigned) [Example 282] | > 1000 | 7 | – | 95 | – | – |
| CC(C)OC1CCC(N[C@H]2CCCO[C@@H]2Cc2ccc3c(c2F)CN(C2CCC(=O)NC2=O)C3=O)CC1 (single isomer, unassigned) [Example 284] | > 1000 | 5 | – | 97 | – | – |
| CC(C)OC1CCC(N[C@H]2CCCO[C@@H]2Cc2ccc3c(c2F)CN(C2CCC(=O)NC2=O)C3=O)CC1 (single isomer, unassigned) [Example 285] | 124 | 8 | 94 | – | – | 37 |
| CCC(C)N[C@H]1CCCO[C@@H]1Cc1ccc2c(c1F)CN(C1CCC(=O)NC1=O)C2=O (single isomer, unassigned) [Example 292] | > 1000 | 7 | – | 94 | – | – |
| CCC(C)N[C@H]1CCCO[C@@H]1Cc1ccc2c(c1F)CN(C1CCC(=O)NC1=O)C2=O (single isomer, unassigned) [Example 293] | > 1000 | 8 | 94 | – | – | – |
| CCC(C)N[C@H]1CCCC[C@@H]1Cc1ccc2c(c1F)CN(C1CCC(=O)NC1=O)C2=O (single isomer, unassigned) [Example 294] | 912 | 2 | – | 97 | – | 59 |
| CCC(C)N[C@H]1CCCC[C@@H]1Cc1ccc2c(c1F)CN(C1CCC(=O)NC1=O)C2=O (single isomer, unassigned) [Example 295] | 283 | 1 | 97 | – | 43 | – |
| O=C1CCC(N2Cc3c(ccc(C[C@H]4OCCC[C@@H]4NC4CCOC4)c3F)C2=O)C(=O)N1 (single isomer, unassigned) [Example 296] | > 1000 | 105 | – | 86 | – | – |
| O=C1CCC(N2Cc3c(ccc(C[C@H]4OCCC[C@@H]4NC4CCOC4)c3F)C2=O)C(=O)N1 (single isomer, unassigned) [Example 297] | > 1000 | 101 | 84 | – | – | – |
| CC(N[C@H]1CCCO[C@@H]1Cc1ccc2c(c1F)CN(C1CCC(=O)NC1=O)C2=O)C1CCOCC1 (single isomer, unassigned) [Example 298] | > 1000 | 55 | 76 | – | – | – |
| COC1(C)CCC(N[C@H]2CCCO[C@@H]2Cc2ccc3c(c2F)CN(C2CCC(=O)NC2=O)C3=O)CC1 (single isomer, unassigned) [Example 317] | 243 | 6 | 94 | – | – | 33 |
| O=C1CCC(N2Cc3c(ccc(C[C@H]4OCCC[C@@H]4NC4CCC(OC(F)F)CC4)c3F)C2=O)C(=O)N1 (single isomer, unassigned) [Example 326] | 261 | 7 | – | 95 | – | 40 |
| O=C1CC[C@H](N2Cc3c(ccc(C[C@H]4OCCC[C@@H]4NC4CCCCC4)c3F)C2=O)C(=O)N1 (single isomer, unassigned) [Example 338] | > 1000 | 6 | – | 92 | – | – |
| O=C1CC[C@@H](N2Cc3c(ccc(C[C@H]4OCCC[C@@H]4NC4CCCCC4)c3F)C2=O)C(=O)N1 (single isomer, unassigned) [Example 339] | > 1000 | 11 | – | 93 | – | – |

Further lines, results first:

| DC50 (IKZF1) [nM] | DC50 (IKZF2) [nM] | IKZF2 Dmax (IKZF2) [%] | Dmax (IKZF2) [%] | IKZF1 Dmax (IKZF1) [%] | Dmax (IKZF1) [%] | Compound |
| --- | --- | --- | --- | --- | --- | --- |
| > 1000 | 6 | 96 | – | – | – | O=C1CCC(N2Cc3cc(C[C@H]4CCCC[C@@H]4NC4CCCOC4)ccc3C2=O)C(=O)N1 (single isomer, unassigned) [Example 261] |
| 76 | 6 | 98 | – | 62 | – | N#CC1CCC(N[C@H]2CCCC[C@@H]2Cc2ccc3c(c2)CN(C2CCC(=O)NC2=O)C3=O)CC1 (single isomer, unassigned) [Example 268] |
| 266 | 3 | – | 96 | – | 40 | N#CCC1CCC(N[C@H]2CCCC[C@@H]2Cc2ccc3c(c2)CN(C2CCC(=O)NC2=O)C3=O)CC1 (single isomer, unassigned) [Example 269] |
| 179 | 8 | 98 | – | 22 | – | N#CCC1CCC(N[C@H]2CCCC[C@@H]2Cc2ccc3c(c2)CN(C2CCC(=O)NC2=O)C3=O)CC1 (single isomer, unassigned) [Example 270] |
| 45 | 2 | – | 98 | – | 44 | O=C1CCC(N2Cc3cc(C[C@H]4CCCC[C@@H]4NC4CCC5(CC4)CC5(F)F)ccc3C2=O)C(=O)N1 (single isomer, unassigned) [Example 271] |
| > 1000 | 23 | – | 93 | – | – | CC1(C)OCCC1N[C@H]1CCCC[C@@H]1Cc1ccc2c(c1)CN(C1CCC(=O)NC1=O)C2=O (single isomer, unassigned) [Example 273] |
| 102 | 12 | 97 | – | – | 35 | CC1(C)OCCC1N[C@H]1CCCC[C@@H]1Cc1ccc2c(c1)CN(C1CCC(=O)NC1=O)C2=O (single isomer, unassigned) [Example 274] |
| > 1000 | 4 | – | 96 | – | – | CC1(C)CCCC(N[C@H]2CCCC[C@@H]2Cc2ccc3c(c2)CN(C2CCC(=O)NC2=O)C3=O)C1 (single isomer, unassigned) [Example 275] |
| > 1000 | 3 | 97 | – | – | – | CC1(C)CCCC(N[C@H]2CCCC[C@@H]2Cc2ccc3c(c2)CN(C2CCC(=O)NC2=O)C3=O)C1 (single isomer, unassigned) [Example 276] |
| 125 | 4 | 98 | – | 37 | – | COC1CCC(N[C@H]2CCCC[C@@H]2Cc2ccc3c(c2)CN(C2CCC(=O)NC2=O)C3=O)CC1 (single isomer, unassigned) [Example 278] |
| 51 | 3 | – | 95 | – | 30 | CC1CCC(N[C@H]2CCCC[C@@H]2Cc2ccc3c(c2)CN(C2CCC(=O)NC2=O)C3=O)CC1 (single isomer, unassigned) [Example 279] |
| 70 | 3 | 98 | – | 29 | – | CC1CCC(N[C@H]2CCCC[C@@H]2Cc2ccc3c(c2)CN(C2CCC(=O)NC2=O)C3=O)CC1 (single isomer, unassigned) [Example 280] |
| 223 | 27 | – | 96 | – | 33 | O=C1CCC(N2Cc3cc(C[C@H]4CCCC[C@@H]4NC4CCC45COC5)ccc3C2=O)C(=O)N1 (single isomer, unassigned) [Example 286] |
| > 1000 | 4 | 97 | – | – | – | CCC(C)N[C@H]1CCCC[C@@H]1Cc1ccc2c(c1)CN(C1CCC(=O)NC1=O)C2=O (single isomer, unassigned) [Example 300] |
| > 1000 | 3 | – | 97 | – | – | O=C1CC[C@H](N2Cc3cc(C[C@H]4CCCC[C@@H]4NC4CCCCC4)ccc3C2=O)C(=O)N1 (single isomer, unassigned) [Example 336] |
| > 1000 | 5 | – | 95 | – | – | O=C1CC[C@@H](N2Cc3cc(C[C@H]4CCCC[C@@H]4NC4CCCCC4)ccc3C2=O)C(=O)N1 (single isomer, unassigned) [Example 337] |
